Holding throughout (test): DTP human tumour cell line panel, 48 h
Test [1] relates to HT-29.
The test system of test [2] is SF-295.
Test [3] relates to SK-MEL-2.
Test [4] has as its system HOP-92.
Test [5] has as its system NCI-H522.
Test [6] concerns A549.
The test system of test [7] is HCC 2998.
In test [8] the test system is COLO 205.
Test [9] concerns RPMI-8226.
Test [10] concerns HCT-15.
The test system of test [11] is OVCAR-8.
In test [12] the test system is TK-10.
The subject of test [13] is MOLT-4.
Test [14] has as its system NCI-H23.
In test [15] the test system is OVCAR-4.
Test [16] deals with ACHN.
In test [17] the test system is SN12C.
Test [18] concerns SF-268.
Test [19] has as its system SR.

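96-well plates; 48 h exposure; 5 concentrations. Endpoints by linear interpolation between flanking doses. Not reached: highest tested concentration assigned. GI50 = concentration required for 50% inhibition of growth.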 The source made the active and inactive calls. No stated cut-off is given here; in the data, active = GI50 up to about 1.1 µM and inactive = higher.

On to `O=c1ccc2nc3ccc(O)cc3oc-2c1`, for which the GI50 is 24 µM (inactive) in test [1]; 8.49 µM (inactive) in [2]; 12.8 µM (inactive) in [3]; > 100 µM (inactive) in [4]; 5.32 µM (inactive) in test [5]; 4.27 µM (inactive) in test [6]. In addition, the GI50 in [7] is 25.6 µM (inactive); in test [8] it was 6.25 µM (inactive); in test [9], 3.3 µM (inactive); in [10], 13.5 µM; in test [11] it was 16.4 µM (inactive); in test [12], > 72.1 µM (inactive). Moreover, the GI50 was 34 µM (inactive) in test [13]; 3.56 µM (inactive) in [14]; > 68.1 µM (inactive) in test [15]; 8.11 µM (inactive) in [16]; > 100 µM (inactive) in test [17]; 28.8 µM (inactive) in test [18].
With `CCOC(=O)C1=C(Nc2ccccc2)SCC1=O`, the GI50 in test [1], in test [2], in [3], in test [4], in test [5] and in [6] was > 100 µM (inactive) throughout. Moreover, the GI50 in [7] was > 100 µM (inactive); in test [8], > 100 µM (inactive); in test [9] it was > 100 µM (inactive); in [10], > 100 µM; in test [11] it was > 100 µM (inactive); in [19] it was > 100 µM (inactive). The GI50 was > 100 µM (inactive) in [12]; > 100 µM (inactive) in test [13]; > 100 µM (inactive) in test [14]; 63.2 µM (inactive) in [15]; > 100 µM (inactive) in test [16]; > 100 µM (inactive) in test [17]. Also, the GI50 in test [18] was > 100 µM (inactive).
In the case of `COC(Cc1cc(C(O)(c2ccc(C(C)(C)C)cc2)c2cc(CC(OC)(c3cc(C(OC)(c4ccc(C(C)(C)C)cc4)c4ccc(C(C)(C)C)cc4)c(C)cc3C)c3cc(C(OC)(c4ccc(C(C)(C)C)cc4)c4ccc(C(C)(C)C)cc4)c(C)cc3C)c(C)cc2C)c(C)cc1C)(c1cc(C(OC)(c2ccc(C(C)(C)C)cc2)c2ccc(C(C)(C)C)cc2)c(C)cc1C)c1cc(C(OC)(c2ccc(C(C)(C)C)cc2)c2ccc(C(C)(C)C)cc2)c(C)cc1C`, the GI50 in test [1], in test [2], in test [3], in [4], in [6] and in test [7] was > 75 µM (inactive) each time. In addition, the GI50 in test [8] is > 75 µM (inactive); in [10], > 75 µM; in test [11], > 75 µM (inactive); in [19], > 75 µM (inactive); in test [12], > 75 µM (inactive); in test [13] it was > 75 µM (inactive). For the same molecule, the GI50 in test [14], in [15], in [17] and in test [18] was > 75 µM (inactive) throughout.
With `CC(=O)/N=C1\N/C(=C\c2ccc(Cl)cc2)C(=O)N1/C=C1\C(=O)Oc2ccccc2C1=O`, the GI50 in test [1] is > 100 µM (inactive); in test [2] it was > 100 µM (inactive); in test [3], > 100 µM (inactive); in [5], 78.9 µM (inactive); in [6] it was > 100 µM (inactive); in [7] it was > 100 µM (inactive). For the same molecule, the GI50 in test [8] was > 100 µM (inactive); in test [9], > 100 µM (inactive); in test [10] it was 85.1 µM; in [11], > 100 µM (inactive); in test [19], 52.2 µM (inactive); in test [13], > 100 µM (inactive). Moreover, the GI50 in test [14] was > 100 µM (inactive); in test [15], > 100 µM (inactive); in test [16], > 100 µM (inactive); in [17], > 100 µM (inactive); in [18], 45.9 µM (inactive).
On to `Cc1cc(C)c(S(=O)(=O)N(CCCCCN)OCCCN)c(C)c1`, for which the GI50 in [1] is 14.1 µM (inactive); in [2], 15.1 µM (inactive); in test [3], 17.9 µM (inactive); in test [4], 15.9 µM (inactive); in test [6], 19 µM (inactive); in test [7] it was 7.14 µM (inactive). The GI50 was 20.2 µM (inactive) in test [8]; 11.7 µM (inactive) in test [9]; 18.8 µM (inactive) in test [11]; 12.7 µM (inactive) in [19]; 17 µM (inactive) in test [12]; 14.4 µM (inactive) in test [13]. Besides, the GI50 in test [14] is 18.3 µM (inactive); in test [15], 21.5 µM (inactive); in test [16] it was 19.5 µM (inactive); in [17] it was 18.1 µM (inactive); in test [18] it was 20.3 µM (inactive).
As to `OC(c1ccc(-c2ccccc2)cc1)(c1ccc(-c2ccccc2)cc1)c1ccc(-c2ccccc2)cc1`, the GI50 in [1], in test [2], in test [5], in test [6], in test [8] and in test [9] was > 100 µM (inactive) each time. Further, the GI50 in test [10] is 4.56 µM; in [11] it was > 100 µM (inactive); in test [19], > 100 µM (inactive); in [12] it was > 100 µM (inactive); in test [13], 28.6 µM (inactive); in [14], > 100 µM (inactive). The GI50 in test [15], in [16], in test [17] and in test [18] was > 100 µM (inactive) throughout.
In the case of `Cc1ccc([N+](=O)[O-])cc1S(=O)(=O)Nc1ccc(C2=NNC(c3ccccc3O)C2)cc1` (stereo not given), the GI50 was 28.8 µM (inactive) in [1]; 31.7 µM (inactive) in [2]; 25.2 µM (inactive) in test [3]; 79.3 µM (inactive) in test [4]; 23.3 µM (inactive) in [5]; 24.9 µM (inactive) in [6]. Also, the GI50 is 34.7 µM (inactive) in [7]; 24.7 µM (inactive) in test [8]; 26.2 µM (inactive) in [9]; 21.2 µM in test [10]; 56 µM (inactive) in test [11]; 23.9 µM (inactive) in [19]. The GI50 in test [12] is 0.416 µM (active); in test [13], 24.1 µM (inactive); in [14] it was 20.6 µM (inactive); in [15], 19.8 µM (inactive); in [16], 23.6 µM (inactive); in test [17] it was 23.9 µM (inactive). Moreover, the GI50 in test [18] was 32.1 µM (inactive).
Consider `O=c1[nH]c(=O)n(C2OC3COC2C3O)cc1F` (stereo not given), for which the GI50 in test [1] is > 100 µM (inactive); in test [2], > 100 µM (inactive); in [3] it was > 100 µM (inactive); in test [4] it was 29.8 µM (inactive); in [5] it was > 100 µM (inactive); in [6], > 100 µM (inactive). The GI50 is > 100 µM (inactive) in [7]; > 100 µM (inactive) in test [8]; > 100 µM (inactive) in test [9]; > 100 µM in [10]; > 100 µM (inactive) in test [11]; > 100 µM (inactive) in test [12]. Besides, the GI50 in [13], in [14], in test [15], in test [16], in [17] and in test [18] was > 100 µM (inactive) each time.
Take `O=c1c2c(nc3[nH]ccn13)CCCC2`: the GI50 in test [1], in test [2], in test [3], in test [5], in test [6] and in [7] was > 10 µM (inactive) in each case. Moreover, the GI50 in test [8] was > 10 µM (inactive); in [9], > 10 µM (inactive); in [10], > 10 µM; in test [11] it was > 10 µM (inactive); in [19], > 10 µM (inactive); in test [12], > 10 µM (inactive). Besides, the GI50 in test [13], in test [14], in test [15], in [16], in test [17] and in [18] was > 10 µM (inactive) each time.
Turning to `N#C/C(=C\c1ccncc1)c1csc2ccccc12`, the GI50 in [1] is 18.6 µM (inactive); in test [2] it was 32.4 µM (inactive); in test [3], 17.2 µM (inactive); in test [4], 20.9 µM (inactive); in test [5], 17.5 µM (inactive); in [6], 23.4 µM (inactive). Further, the GI50 is 17.4 µM (inactive) in test [7]; 18.9 µM (inactive) in test [8]; 18.6 µM (inactive) in test [9]; 24 µM in test [10]; 28.5 µM (inactive) in [11]; 15.5 µM (inactive) in [13]. For the same molecule, the GI50 in test [14] is 25.2 µM (inactive); in test [15], 26.2 µM (inactive); in test [17], 23.6 µM (inactive); in test [18], 22.9 µM (inactive).
`O=c1c(C(c2ccccc2)c2c(O)oc3cc(O)ccc3c2=O)c(O)oc2cc(O)ccc12`: the GI50 in test [1], in test [2], in test [3], in [4], in test [6] and in test [7] was > 100 µM (inactive) each time. The GI50 in test [8] is > 100 µM (inactive); in [10], > 100 µM; in test [11], > 100 µM (inactive); in [19] it was > 100 µM (inactive); in test [12], > 100 µM (inactive); in test [13], > 100 µM (inactive). The GI50 in [14], in test [15], in test [17] and in test [18] was > 100 µM (inactive) in each case.
